Each structure is given as a SMILES string. Like-named read-outs stand apart in the source and are kept apart here.

The nature of data set [1]: Volatility of compounds measured by thermogravimetric analysis (TGA), rate of weight loss. The data set is classed as physicochemical. The note with it: estimates of volatility. The source says: Briefly, the rate of weight loss measured in units of […]g/min can be used to determine vapor pressure as shown by the simplified equation: wherein, k is the intrinsic volatility and A is the surface area, Referring now to FIG. 2. A graph of weight loss as function of time for solid samples produces a linear curve; the slope of the curve is the rate of weight loss. When this method is used to measure the volatility of aqueous salt concentrates or liquid concentrates, the water or acetone present in the sample volatilizes before the sample of interest. The first linear loss region of the curve is the loss of water or acetone and the second linear region is characteristic of the sample of interest. In order to illustrate the difference in volatility between some of the compounds disclosed herein and the widely used herbicide dicamba, data from both the compounds and dicamba are presented Table 3 and in FIG. 1.

Data set [2] has as its system Conyza canadensis (L.) (ERICA). The experiment in a line: Postemergence herbicide evaluation, percent reduction in plant size vs untreated control, 21 days after treatment. The class given is in vivo, Conyza canadensis (L.) (Horseweed). Particulars: Erigeron canadensis, post-emergence, 504 h, ERICA, postemergence, read-out: Control/Injury; for pest or weed control at 140 g/ha: rate 140 g ae/ha; for pest or weed control at 280 g/ha: rate 280 g ae/ha. In a few lines: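 Horseshoe-weed (horseweed) seedlings at 2 to 8 leaf stage in greenhouse (25-28° C, 16 h light), sprayed postemergence at 140 or 280 g ae/ha in acetone/DMSO-based spray solution, 187 L/ha track-sprayer. Randomized complete block, 3-4 replicates; plant size measured 21 days after treatment as percent reduction vs untreated controls.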

In data set [3] the test system is Ambrosia artemisiifolia (AMBEL). The data set is described as above. The class given is in vivo, Ambrosia artemisiifolia (common ragweed). The note with it: post-emergence, 504 h, AMBEL, postemergence, read-out: Control/Injury; for pest or weed control at 140 g/ha: rate 140 g ae/ha; for pest or weed control at 280 g/ha: rate 280 g ae/ha. The essentials: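 Greenhouse-grown plants (25–28 °C, 16 h light) were sprayed postemergence at the 2–8 leaf stage with 140 or 280 g ae/ha in acetone/DMSO-based spray solution with crop oil and surfactant, at 187 L/ha by track sprayer. There were 3–4 replicates. Plant size was measured 21 days after treatment versus untreated plants.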

In a further data set the test system is Glycine max. As to the kind of experiment: whole plant or invertebrate. The note with it: for plant injury at 140 g/ha / plant injury at 280 g/ha: Glycine max, post-emergence, 504 h, read-out: Control/Injury. In a few lines:
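Greenhouse soybean (25–28 °C, 16 h light) sprayed post-emergence at 2–8 leaf stage with 140 or 280 g ae/ha in acetone/DMSO-based spray solution with crop oil concentrate, 187 L/ha by track sprayer; 3–4 replicates, randomized blocks. Plant size reduction versus untreated control measured 21 days after treatment.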

For another data set, the system named is Amaranthus rudis (AMATA). As to the kind of experiment: Postemergence herbicide evaluation, percent reduction in plant size vs untreated control, 21 days after treatment. The data set is classed as in vivo, Amaranthus rudis (tall water hemp). The note with it: Amaranthus tuberculatus, post-emergence, 504 h, AMATA, postemergence, read-out: Control/Injury; for pest or weed control at 140 g/ha: rate 140 g ae/ha; for pest or weed control at 280 g/ha: rate 280 g ae/ha. The essentials: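 Greenhouse-grown tall waterhemp (25-28° C, 16 h light) at the 2-8 leaf stage, treated by track sprayer at 187 L/ha with compound at 140 or 280 g ae/ha in acetone/DMSO-based spray solution with crop oil and surfactant. 3-4 replicates per treatment, randomized complete block; plant size reduction versus untreated control measured 21 days after treatment.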

A further data set concerns Kochia scoparia (KCHSC). The description is as above. The class given is in vivo. Particulars: Bassia scoparia, post-emergence, 504 h, KCHSC, postemergence, read-out: Control/Injury; for pest or weed control at 140 g/ha: rate 140 g ae/ha; for pest or weed control at 280 g/ha: rate 280 g ae/ha. In a few lines: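 Greenhouse-grown plants (25-28 °C, 16 h light) at the 2 to 8 leaf stage were track-sprayed postemergence at 140 or 280 g ae/ha in acetone/DMSO-based spray solution with crop oil and surfactant, at 187 L/ha, in 3-4 randomized replicates.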

The test system of data set [4] is Amaranthus palmeri (AMAPA). Described as above. The data set is classed as in vivo, Amaranthus palmeri (Palmer amaranth). Particulars: post-emergence, 504 h, postemergence, read-out: Control/Injury; for pest or weed control at 140 g/ha: rate 140 g ae/ha; for pest or weed control at 280 g/ha: rate 280 g ae/ha. The essentials:
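Greenhouse-grown Palmer amaranth (25 to 28° C, 16 h light) sprayed postemergence at the 2 to 8 leaf stage with 140 or 280 g ae/ha in acetone/DMSO-based solution containing crop oil concentrate, 187 L/ha by track sprayer. Three to four replicates; plant size measured 21 days after treatment as percent reduction versus untreated control.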

[5] abbreviates: percent reduction vs untreated control, 21 days after treatment.
Where [6] appears, read: R-AMAPA, percent reduction vs untreated control, 21 days after treatment.
Setting [7] is: percent reduction vs untreated, 21 days after treatment.

As to `COc1c(Cl)ccc(Cl)c1C(=O)O/N=C(\N)c1ccc(Cl)c(Cl)c1` [Compound A-14], in data set [1], the Volatility is recorded as 0.056 ng/min.
With `COc1c(Cl)ccc(Cl)c1C(=O)O/N=C(\N)c1ccccn1` [Compound A-34], the Volatility in data set [1] is 0.039 ng/min. Also, in data set [2] (setting [5]), the pest or weed control at 140 g/ha was 87% and the pest or weed control at 280 g/ha worked out at 97%.
`COc1c(Cl)ccc(Cl)c1C(=O)O/N=C(\N)c1ccc2ccoc2c1` [Compound A-26]: the Volatility in data set [1] is listed as 0.0034 ng/min. Further, in data set [2] (setting [5]), the pest or weed control at 140 g/ha is 93% and the pest or weed control at 280 g/ha came out at 93%.
As to `COc1c(Cl)ccc(Cl)c1C(=O)O/N=C(\N)c1ccncc1` [Compound A-33], in data set [1], the Volatility is 0.015 ng/min. In addition, in data set [2] (setting [5]), the pest or weed control at 140 g/ha was 87% and the pest or weed control at 280 g/ha stood at 93%.
In the case of `COc1c(Cl)ccc(Cl)c1C(=O)O/N=C(\C)C/C(C)=N/OC(=O)c1c(Cl)ccc(Cl)c1OC` [Compound A-58], the Volatility in data set [1] is given as 0.11 ng/min.
Regarding `COc1c(Cl)ccc(Cl)c1C(=O)OCc1ccc(COC(=O)c2c(Cl)ccc(Cl)c2OC)cc1` [Compound A-56], the Volatility in data set [1] is listed as 0.08 ng/min.
As to `COc1c(Cl)ccc(Cl)c1C(=O)O/N=C(\N)C1CCCCC1` [Compound A-6], the Volatility in data set [1] is 0.064 ng/min. For the same compound, in data set [2] (setting [5]), the pest or weed control at 140 g/ha amounted to 98% and the pest or weed control at 280 g/ha stood at 98%.
As for `COc1c(Cl)ccc(Cl)c1C(=O)O/N=C(\N)c1ccc2ncccc2c1` [Compound A-25], the Volatility in data set [1] is 0.021 ng/min. For the same compound, in data set [2] (setting [5]), the pest or weed control at 140 g/ha was determined as 95% and the pest or weed control at 280 g/ha amounted to 90%.
As for `COc1c(Cl)ccc(Cl)c1C(=O)O/N=C(\N)CC(C)C` [Compound A-59], the Volatility in data set [1] is reported as 0.086 ng/min. Also, in data set [2] (setting [5]), the pest or weed control at 140 g/ha stood at 94% and the pest or weed control at 280 g/ha is 99%.
Consider `COc1c(Cl)ccc(Cl)c1C(=O)O/N=C(\N)c1ccco1` [Compound A-38], for which the Volatility in data set [1] is given as 0.46 ng/min. In data set [2] (setting [5]), the pest or weed control at 140 g/ha amounted to 89% and the pest or weed control at 280 g/ha amounted to 97%.
`COc1c(Cl)ccc(Cl)c1C(=O)O/N=C(\N)c1cccs1` [Compound A-36]: in data set [1], the Volatility is reported as 0.417 ng/min. Also, in data set [2] (setting [5]), the pest or weed control at 140 g/ha turned out to be 83% and the pest or weed control at 280 g/ha was found to be 98%.
Turning to `COc1c(Cl)ccc(Cl)c1C(=O)O/N=C(\N)c1ccsc1` [Compound A-37], the Volatility in data set [1] is reported as 0.145 ng/min. Also, in data set [2] (setting [5]), the pest or weed control at 140 g/ha turned out to be 87% and the pest or weed control at 280 g/ha was 96%.
`COc1c(Cl)ccc(Cl)c1C(=O)O/N=C(\N)c1ccc(C)cc1` [Compound A-17]: in data set [1], the Volatility is listed as 0.026 ng/min. In data set [2] (setting [5]), the pest or weed control at 140 g/ha was determined as 94% and the pest or weed control at 280 g/ha turned out to be 95%.
Turning to `COc1ccccc1/C(N)=N/OC(=O)c1c(Cl)ccc(Cl)c1OC` [Compound A-21], the Volatility in data set [1] is recorded as 0.074 ng/min. In addition, in data set [2] (setting [5]), the pest or weed control at 140 g/ha is 95% and the pest or weed control at 280 g/ha was 98%.
With `COc1c(Cl)ccc(Cl)c1C(=O)O/N=C(\N)c1ccc(Cl)cc1Cl` [Compound A-15], the Volatility in data set [1] is on record as 0.0098 ng/min. In data set [2] (setting [5]), the pest or weed control at 140 g/ha amounted to 98% and the pest or weed control at 280 g/ha is 96%.
`COc1c(Cl)ccc(Cl)c1C(=O)OCc1cccnc1` [Compound A-45]: the Volatility in data set [1] was 0.73 ng/min.
Turning to `COc1c(Cl)ccc(Cl)c1C(=O)O/N=C(\N)c1cncnc1` [Compound A-35], the Volatility in data set [1] is recorded as 0.022 ng/min. In data set [2] (setting [5]), the pest or weed control at 140 g/ha was determined as 96% and the pest or weed control at 280 g/ha is 99%.
`COc1c(Cl)ccc(Cl)c1C(=O)O/N=C(\N)Cc1ccccc1` [Compound A-8]: in data set [1], the Volatility was 0.189 ng/min. Further, in data set [2] (setting [5]), the pest or weed control at 140 g/ha stood at 98% and the pest or weed control at 280 g/ha was found to be 99%.
As for `COc1ccc(/C(N)=N/OC(=O)c2c(Cl)ccc(Cl)c2OC)cc1` [Compound A-20], the Volatility in data set [1] is 0.04 ng/min.
For `COc1c(Cl)ccc(Cl)c1C(=O)ON(C)C(=O)Nc1ccccc1` [Compound A-75], the pest or weed control at 140 g/ha in data set [3] was determined as 82%; with Amaranthus rudis (AMATA) it was 58%; with Kochia scoparia (KCHSC), 88%; in data set [4] (setting [6]), 73%; in data set [2] (setting [5]) it was 72%. The pest or weed control at 280 g/ha in data set [3] was 88%; in the data set on Amaranthus rudis (AMATA), 85%; in the data set with Kochia scoparia (KCHSC) it was 97%; in data set [4] (setting [6]), 91%; in data set [2] (setting [5]), 73%. Besides, in the data set with Glycine max, the plant injury at 140 g/ha was found to be 3%. In addition, the plant injury at 280 g/ha in the data set on Glycine max was 3%.
For the compound `COc1c(Cl)ccc(Cl)c1C(=O)O/N=C(\N)c1ccccc1Cl` [Compound A-13], the Volatility in data set [1] is 0.012 ng/min.
Regarding `COc1c(Cl)ccc(Cl)c1C(=O)NS(=O)(=O)c1ccc(C)cc1` [Compound A-78], the pest or weed control at 140 g/ha in data set [3] was 45%; in the data set on Amaranthus rudis (AMATA), 12%; in the data set on Kochia scoparia (KCHSC) it was 50%; in data set [4] (setting [6]), 23%; in data set [2] (setting [5]), 5%. The pest or weed control at 280 g/ha in data set [3] amounted to 57%; in the data set on Amaranthus rudis (AMATA), 20%; in the data set with Kochia scoparia (KCHSC) (setting [5]), 85%; in data set [4] (setting [6]), 32%; in data set [2] (setting [5]), 15%. For the same compound, the plant injury at 140 g/ha in the data set on Glycine max turned out to be 25%. For the same compound, the plant injury at 280 g/ha with Glycine max worked out at 67%.
In the case of `COc1c(Cl)ccc(Cl)c1C(=O)Oc1cc(C(F)(F)F)n(C)n1` [Compound A-118], the pest or weed control at 140 g/ha in data set [3] turned out to be 80%; in the data set with Amaranthus rudis (AMATA), 68%; in the data set on Kochia scoparia (KCHSC) (setting [7]) it was 83%; in data set [4] (AMAPA), 63%; in data set [2], 93%. Moreover, the pest or weed control at 280 g/ha in data set [3] is 97%; in the data set with Amaranthus rudis (AMATA), 80%; in the data set on Kochia scoparia (KCHSC) (setting [7]) it was 99%; in data set [4] (AMAPA), 73%; in data set [2], 96%. This compound yielded a Control/Injury in the data set on Glycine max (in vivo) of 8.

Source of the values: patent US20240122179A1, “AUXINIC HERBICIDES AND METHODS OF USE THEREOF” (CORTEVA AGRISCIENCE LLC, priority 2021, published 2024).
